Assay in all cases: growth of human tumour cells (NCI), 48 h
The test system of test [1] is HCT-116.
Test [2] deals with MOLT-4.
Test [3] deals with U-251.
Test [4] concerns ACHN.
For test [5], the system named is IGROV-1.
In test [6] the test system is SF-268.
For test [7], the system named is HCC 2998.
Test [8] has as its system NCI-H226.
In test [9] the test system is SF-295.
Test [10] concerns HL-60.
Test [11] has as its system NCI/ADR-RES.
For test [12], the system named is UACC-257.
Test [13] has as its system SK-MEL-5.
The subject of test [14] is SN12C.
The subject of test [15] is DU-145.
Test [16] relates to SK-MEL-2.
Test [17] relates to NCI-H460.
The test system of test [18] is SK-MEL-28.
Test [19] concerns HOP-62.
Test [20] concerns SR.

The text below walks through data of ChEMBL document CHEMBL1201862, “PubChem BioAssay data set” (2004).

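All cell lines were grown in 96-well plates and treated with compound for 48 hours. GI50 = concentration required for 50% inhibition of growth.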 Calls of active or inactive are those of the source. Rule as the data show it: active = GI50 up to about 1.1 µM and inactive = higher. Where only a bound is given, the exact number is not on record here.

Regarding `CC1(C)CC2(C)OC(=N)C1(C#N)C2(C#N)C#N` (centres undefined), the GI50 is 7.46 µM (inactive) in test [1]; 9.53 µM (inactive) in [2]; 13.6 µM (inactive) in [3]; 7.64 µM (inactive) in test [4]; 15 µM (inactive) in test [5]; 15.6 µM (inactive) in test [6]. In addition, the GI50 in test [7] was 12.1 µM (inactive); in [8], > 10 µM (inactive); in test [9] it was 16.3 µM (inactive); in test [10] it was 2.98 µM (inactive); in [11], 13 µM (inactive); in [12], 7.4 µM (inactive). The GI50 in [13] was 8.83 µM (inactive); in test [14] it was 10.1 µM (inactive); in [15], 14.6 µM (inactive); in test [16], 17.4 µM (inactive).
Regarding `COP(C)(=O)C1=CCN(C(=O)OCC[Si](C)(C)C)CC1` (centres undefined), the GI50 in [3], in test [4], in [5], in test [17], in [6] and in [7] was > 100 µM (inactive) each time. The GI50 in [18], in test [19], in test [8], in test [9], in test [11] and in test [12] was > 100 µM (inactive) each time. In addition, the GI50 in test [13], in test [15] and in test [16] was > 100 µM (inactive) throughout.
Take `O[C@@]12Cc3c([nH]c4ccccc34)[C@@H]3Oc4c(-c5ccccc5)ccc5c4[C@@]31CCN(CC1CC1)[C@@H]2C5`: the GI50 in test [1] was 1.73 µM (inactive); in test [2], 3.07 µM (inactive); in [20], 2.79 µM (inactive); in [3] it was 1.71 µM (inactive); in test [4], 1.44 µM (inactive); in test [5], 4.07 µM (inactive). Also, the GI50 in [17] was 1.72 µM (inactive); in [6], 3.42 µM (inactive); in test [7], 1.57 µM (inactive); in test [18] it was 1.71 µM (inactive); in test [19] it was 1.51 µM (inactive); in test [9], 1.69 µM (inactive). Also, the GI50 in test [10] was 2.06 µM (inactive); in test [11] it was 2.51 µM (inactive); in test [12] it was 1.84 µM (inactive); in test [13], 1.83 µM (inactive); in test [16], 1.84 µM (inactive).
For `O=C1C(Cl)=C(Cl)C(Cl)(Cl)C(Cl)C1(Cl)Cl` (centres undefined), the GI50 is 18.8 µM (inactive) in test [1]; 19 µM (inactive) in [3]; 29.8 µM (inactive) in test [4]; 17 µM (inactive) in [5]; 19.9 µM (inactive) in test [17]; 19.6 µM (inactive) in [6]. The GI50 was 17.3 µM (inactive) in test [7]; 23.5 µM (inactive) in test [18]; 23.4 µM (inactive) in [19]; 21.2 µM (inactive) in test [9]; 18.4 µM (inactive) in [10]; 25.3 µM (inactive) in test [11]. The GI50 is 18.4 µM (inactive) in [12]; 13.7 µM (inactive) in test [13]; 20 µM (inactive) in test [14]; 27.4 µM (inactive) in test [15]; 15.8 µM (inactive) in test [16].
On to `CC1CCC(C(C)C2C(O)CC3C4CC=C5CC(O)CCC5(C)C4CCC32C)NC1` (centres undefined), for which the GI50 is 45.3 µM (inactive) in test [1]; 8.38 µM (inactive) in test [2]; 24.4 µM (inactive) in test [3]; 42 µM (inactive) in test [4]; 48 µM (inactive) in test [17]; > 100 µM (inactive) in [6]. Moreover, the GI50 in [7] was 11.9 µM (inactive); in test [18], > 100 µM (inactive); in test [19], 27.7 µM (inactive); in [8] it was 70.8 µM (inactive); in test [10] it was 17.3 µM (inactive); in test [11] it was 23.4 µM (inactive). Further, the GI50 in test [12] was 34.5 µM (inactive); in [13] it was 44.2 µM (inactive); in [14], 20.3 µM (inactive); in test [15] it was 69.8 µM (inactive); in [16], > 100 µM (inactive).
`Cc1nn(C2OC(CO)C(O)C(F)C2O)c(=O)[nH]c1=O` (centres undefined): the GI50 was > 100 µM (inactive) in [1]; 0.504 µM (active) in test [2]; > 100 µM (inactive) in [3]; > 100 µM (inactive) in test [4]; > 100 µM (inactive) in test [17]; > 100 µM (inactive) in test [6]. Moreover, the GI50 in [7], in test [18], in test [8], in test [9], in test [10] and in test [11] was > 100 µM (inactive) each time. Further, the GI50 in test [12], in [13], in test [14], in test [15] and in [16] was > 100 µM (inactive) throughout.
Take `COc1ccc(/C=C2\CCC(CNc3ccc(OC)cc3)C2=O)cc1` (centres undefined): the GI50 was 11 µM (inactive) in test [1]; 18.7 µM (inactive) in [3]; 18.7 µM (inactive) in test [4]; 13.9 µM (inactive) in test [5]; 47.8 µM (inactive) in test [17]; 14.6 µM (inactive) in test [6]. Also, the GI50 in test [7] was 21.2 µM (inactive); in test [18] it was 18.9 µM (inactive); in [19], 36.4 µM (inactive); in [8], > 100 µM (inactive); in test [9] it was 31 µM (inactive); in test [10] it was 3.09 µM (inactive). Further, the GI50 in [11] is 39.4 µM (inactive); in test [12], 17.5 µM (inactive); in test [13] it was 19 µM (inactive); in [14] it was 16 µM (inactive); in test [15], 39.1 µM (inactive).
For `CC(C)(C)CN1[C@@H]2CCCC[C@H]2N(CC(C)(C)C)P1(=O)C(O)/C=C/c1ccccc1` (some centres undefined), the GI50 is 29.8 µM (inactive) in test [1]; 35.5 µM (inactive) in test [2]; 41.4 µM (inactive) in test [3]; 28.9 µM (inactive) in [4]; 25.6 µM (inactive) in [5]; 26.2 µM (inactive) in test [17]. Further, the GI50 in test [6] is 39 µM (inactive); in test [7], 28.5 µM (inactive); in test [18] it was 76.7 µM (inactive); in [19] it was 50.2 µM (inactive); in [8] it was 22.7 µM (inactive); in test [9], 29.7 µM (inactive). The GI50 in test [10] is 32 µM (inactive); in test [11], 32.7 µM (inactive); in [12], 30.1 µM (inactive); in test [13], 18.3 µM (inactive); in test [14], 22.2 µM (inactive); in test [15], 58.1 µM (inactive). In addition, the GI50 in test [16] was 33.3 µM (inactive).
As for `CCCCNC(=S)N/C=C1\C(=O)Nc2ccccc2C1=O`, the GI50 in test [2], in test [20], in test [3], in test [4], in test [5] and in test [17] was > 10 µM (inactive) each time. The GI50 in [6], in test [7], in test [18], in test [19], in test [8] and in test [9] was > 10 µM (inactive) in each case. The GI50 in test [10], in test [11], in [12] and in [14] was > 10 µM (inactive) throughout.
For the compound `C[C@]1(S(=O)(=O)c2ccccc2)C[C@H]2N(Cc3ccccc3)[C@@H]1CCC21OCCO1`, the GI50 was > 100 µM (inactive) in [1]; 30.8 µM (inactive) in test [2]; > 100 µM (inactive) in test [3]; > 100 µM (inactive) in test [4]; > 100 µM (inactive) in [5]; 67.9 µM (inactive) in test [17]. For the same compound, the GI50 in test [6] is > 100 µM (inactive); in [18], > 100 µM (inactive); in test [19], > 100 µM (inactive); in test [9], 90.4 µM (inactive); in [10], 13.6 µM (inactive); in test [11], 46.9 µM (inactive). Further, the GI50 is 22.3 µM (inactive) in [12]; 75.2 µM (inactive) in [13]; > 100 µM (inactive) in test [14]; > 100 µM (inactive) in test [15]; > 100 µM (inactive) in test [16].
Consider `Cc1c2c(n3c(nc4ccccc43)c1C#N)N(c1ccc(Cl)cc1)CC2`, for which the GI50 in test [1], in test [3], in test [4], in test [5], in test [17] and in [6] was > 100 µM (inactive) in each case. Also, the GI50 in [7], in test [18], in [19], in [8], in [9] and in test [10] was > 100 µM (inactive) throughout. Moreover, the GI50 in test [11], in test [12], in test [13], in [14], in test [15] and in [16] was > 100 µM (inactive) throughout.
As to `Cc1csc2nc3[nH]ncc3c(=O)n12`, the GI50 in test [1], in test [2], in test [20], in test [3], in [4] and in test [5] was > 100 µM (inactive) each time. In addition, the GI50 in test [17] was > 100 µM (inactive); in test [6], > 100 µM (inactive); in test [7], > 100 µM (inactive); in test [18] it was > 100 µM (inactive); in test [19], > 100 µM (inactive); in test [8] it was 40.6 µM (inactive). In addition, the GI50 in test [9] is > 100 µM (inactive); in test [11], 66.8 µM (inactive); in test [12], > 100 µM (inactive); in test [13], > 100 µM (inactive); in test [14], > 100 µM (inactive); in test [16], > 100 µM (inactive).
